The experiment has as its system rat sciatic nerve crush injury model. The experiment in a line: Nerve regeneration after sciatic nerve injury (axons, myelinated axons, myelination rate). Format: in vivo. The note with it: for Myelination ratio / Number of axons / Number of myelinated axons: POD14. The text has this:
Six-week-old male Wistar rats (about 200 g) were used. The left sciatic nerve was exteriorized, and crush injury of the sciatic nerve was made on the proximal side by forceps. The nerve was crushed for 10 seconds three times at 10-second intervals. The fascia and skin were sutured using 3-0 nylon. A non-injury group which underwent only sciatic nerve exposure, an untreated group, and a methylcobalamin treatment group were compared. To administer methylcobalamin continuously, an osmotic minipump was placed and left in the dorsal subcutaneous space, and methylcobalamin was administered at a dose of 1 mg/kg/day. In an untreated group, physiological saline was administered instead of methylcobalamin according to the same procedure.
At 1, 3, 7, and 14 days after the surgery, rats were anesthetized with an anesthetic agent. The left sciatic nerve was collected, fixed with 4% PFA for 7 days and with 20% sucrose for 24 hours, and the fixed nerve was freeze-embedded. The embedded tissue was sliced into a 5-μm-thick slice in a nerve short-axis direction and placed on a glass slide. Slices were obtained from 5 positions of 2.5 mm in the proximal direction from an injured region, the injured region, and 2.5, 5.0, and 7.5 mm in the distal direction. The slices were dried for 1 hour and fixed with 95% methanol for 30 minutes. The fixed slices were blocked and allowed to react with primary antibodies at 4° C. overnight. The cells were further allowed to react with a secondary antibody at room temperature for 1 hour so that the nuclei were labeled with DAPI.
The primary antibodies used were a mouse anti-CD68 monoclonal antibody (Abcam), a rabbit anti-iNOS monoclonal antibody (Abcam), a rabbit anti-CD206 monoclonal antibody (Abeam), a rabbit anti-neurofilament 200 (NF 200) polyclonal antibody (SIGMA), and a mouse anti-myelin basic protein (MBP) monoclonal antibody (Calbiochem). The secondary antibodies used were an Alexa 488-labeled goat anti-mouse IgG antibody (Life Technologies), an Alexa 488-labeled goat anti-rabbit IgG antibody (Life Technologies), an Alexa 568-labeled goat anti-mouse IgG antibody (Life Technologies), and an Alexa 568-labeled goat anti-rabbit IgG antibody (Life Technologies).
Effects of methylcobalamin on nerve regeneration after sciatic nerve injury were analyzed by an immunohistological evaluation method. Specifically, the analysis was carried out as follows. Transvers sections of an injured sciatic nerve obtained at 2 weeks after sciatic nerve injury were used for evaluation. As in the macrophage evaluation, evaluations were carried out for the sections at 2.5 mm in the proximal direction from an injury site, the injury site, and 2.5, 5.0, and 7.5 mm in the distal direction. Regenerated axons were labeled with NF 200, and myelin sheaths were labeled with MBP. The myelination rate of the regenerated axons was calculated by the following formula: Myelination rate (%)=number of myelinated axons per mm^2/number of axons per mm^2×100. More specifically, the analysis was performed in the same manner as in Example 7.

Setting [1] is: 5.0 and 7.5 mm in the distal direction, 2 weeks after injury.
Setting [2] is: 2.5 mm in the proximal direction.
Setting [3] is: injury site, 2 weeks after sciatic nerve injury, 1 mg/kg/day.

Each structure is given as a SMILES string.

These results are taken from US12029751B2, “Therapeutic agent for nervous system disease” (OSAKA UNIVERSITY, priority 2017, dated 2024).

On to `C/C1=C2/[N-][C@H]([C@H](CC(N)=O)[C@@]2(C)CCC(=O)NC[C@@H](C)OP(=O)([O-])O[C@H]2[C@@H](O)[C@@H](n3cnc4cc(C)c(C)cc43)O[C@@H]2CO)[C@]2(C)N=C(/C(C)=C3N=C(/C=C4N=C1[C@@H](CCC(N)=O)C\4(C)C)[C@@H](CCC(N)=O)[C@]\3(C)CC(N)=O)[C@@H](CCC(N)=O)[C@]2(C)CC(N)=O.[CH3-].[Co+3]` [MeCbl, methylcobalamin], for which, under setting [1], the “myelination rate as compared to the untreated group” value is “significant differences”. For the same compound, the “numbers of axons as compared to the untreated group” value by setting is: under setting [1], “significant differences”; under setting [3], “significantly improved”. Besides, the Myelination ratio is, setting by setting: (2.5 mm in the distal direction) 0.531; under setting [2], 0.975; (5.0 mm in the distal direction) 0.253; (7.5 mm in the distal direction) 0.163; (Injury site) 0.691. Besides, the Number of axons runs as follows: (2.5 mm in the distal direction) 14478; under setting [2], 16251; (5.0 mm in the distal direction) 16663; (7.5 mm in the distal direction) 14678; (Injury site) 14210. The “Number of myelinated axons” value runs as follows: (2.5 mm in the distal direction) 7620; under setting [2], 15838; (5.0 mm in the distal direction) 4400; (7.5 mm in the distal direction) 2473; (Injury site) 9785. Further, the “numbers of myelinated axons as compared to the untreated group” value under setting [3] is on record as “significantly improved”.
